Measured values from patent US20240166703A1, “ANTI-INFLAMMATORY PEPTIDE AND METHOD OF USE THEREOF” (The Regents of the University of California, priority 2021, published 2024).
Changes are numbered by the printed parent chain. “Also recorded” adds a separate entry of the source. Each block holds one molecule with its values, some of them ahead of it.

Key:
[1] = system: NF-κB DNA binding activity in HeLa cells; experiment: EMSA of NF-κB DNA binding, nuclear extracts of TNF-α-treated HeLa cells; type: cell-based, human; conditions: increasing concentrations 10-50 μM; TNF-α-treated HeLa cells
Experimental: (§1) To prepare nuclear and cytoplasmic protein extracts, HeLa, MEF, and RAW 264.7 cells were lysed in buffer containing 4.3 mM Na2HPO4, 1.47 mM KH2PO4 pH 7.4, 137 mM NaCl, 2.7 mM KCl, 1 mM DTT, 0.05% (v/v) NP-40, and 1×protease inhibitor cocktail for 10 minutes on ice and spun at 3,000 rpm at 4° C. for 10 minutes. The supernatant containing the cytoplasmic fraction was quantified by Bio-Rad protein assay to determine the total amount of protein. Pellets were resuspended in nuclear extraction buffer (25 mM Tris-HCl pH 7.5, 420 mM NaCl, 10% glycerol, 0.2 mM EDTA, 1 mM DTT, 0.5 mM PMSF, 1×protease inhibitor cocktail) once and then subjected to three lysis cycles (freeze at −80° C. and thaw at 37° C.). Finally, samples were centrifuged at 13,000 rpm at 4° C. for 20 minutes, and supernatants containing the soluble nuclear fraction were measured by the Bio-Rad protein assay to determine the total amount of protein. Nuclear and cytoplasmic extracts were aliquoted and kept at −80° C.
(§2) HeLa, MEF, RAW 264.7 cells were cultured in Dulbecco's MEM containing 10% fetal bovine […] supplemented with penicillin and streptomycin, at 37° C. in a humidity incubator with 5% CO2. RAW 264.7 cells were seeded and allowed to adhere for 24 hours then treated with NEMO^ActPep or NEMO^ActPep 6G at different concentrations 60 min before the LPS challenge (100 ng/ml). After 2 hours, nuclear and cytoplasmic extracts were collected. HeLa and MEF cells seeded for 24 hours then treated with NEMO^ActPep or NEMO^ActPep 6G at different concentrations 60 min before the TNF-α challenge (10 ng/ml) for 15 minutes and then nuclear and cytoplasmic extracts were collected. MEF cells were treated with NEMO^ActPep or NEMO^ActPep 6G at different concentrations 1 hour before the LTβR challenge (300 ng/ml). After 24 hours whole cell extracts were collected and aliquoted and kept at −80° C. for further experiments.
(§3) Electrophoretic mobility shift assay (EMSA) was performed using recombinant full length NF-κB ReIA homodimer as a positive control as previously described (45). […] The amount of protein in lysates was quantified by Bio-Rad protein assay. EMSA analysis with quantitative densitometry and signal intensity was quantitated using ImageJ software. […]
It is intrigued by the ability of such a small segment (residues 384-389) of human NEMO to mediate interaction with and promote activation loop phosphorylation of IKK2. […] NF-κB activity was measured by EMSA using nuclear extracts and radiolabeled KB DNA from the immunoglobulin kappa light chain gene (Ig-κB) as the probe (FIG. 5A).

[2] = system: NF-κB DNA binding in RAW 264.7 murine macrophage cells; experiment: EMSA of NF-κB DNA binding, nuclear lysates of LPS-treated RAW 264.7 cells; type: cell-based; conditions: RAW 264.7 cells, 100 ng/mL LPS for 2 hours
Experimental: as §1
HeLa, MEF, RAW 264.7 cells were cultured in Dulbecco's MEM containing 10% fetal bovine […] supplemented with penicillin and streptomycin, at 37° C. in a humidity incubator with 5% CO2. RAW 264.7 cells were seeded and allowed to adhere for 24 hours then treated with NEMO^ActPep or NEMO^ActPep 6G at different concentrations 60 min before the LPS challenge (100 ng/ml). After 2 hours, nuclear and cytoplasmic extracts were collected. […]
as §3
It was then tested if the observed effect is universal across species and cell types. […] The effect of TAT-NEMO^ActPep on NF-κB DNA binding was also analyzed in MEF cells by EMSA.

[3] = system: canonical NF-κB signaling through IKK2 in RAW 264.7 murine macrophage cells; experiment: Western blot of canonical NF-κB signaling in LPS-treated RAW 264.7 cells; type: cell-based; conditions: 100 ng/mL LPS for 2 hours
Experimental: as §1, §2
(§4) Equivalent amounts of protein from cell extracts was separated by SDS-PAGE and transferred to polyvinylidene fluoride (PVDF) membranes (Millipore, Bedford, MA, USA). The membrane was blocked with 5% bovine serum albumin (BSA) for 1 hour at room temperature and then the membrane was incubated with the primary antibodies overnight at 4° C. Antibodies for IKK2, His, HA, Myc, GST, Ubiquitin, IκBα, phospho-IKK2, p65/ReIA, p84, γ-Actin, p100/52, phospho-ERK, phospho-JNK, phospho-p38, ERK, JNK, and p38 were used for detecting multiple specific protein targets. After binding of an appropriate secondary antibody coupled to horseradish peroxidase, the immunoreactive bands were visualized by enhanced chemiluminescence substrate.
It was then tested if the observed effect is universal across species and cell types. The effect of TAT-NEMO^ActPep was tested in RAW 264.7 murine macrophage cells treated with 100 ng/mL purified bacterial lipopolysaccharide (LPS) for 2 hours. Again, NF-κB DNA binding and ReIA subunit nuclear localization were both inhibited as were phosphorylation of the IKK2 activation loop and degradation of IκBα. […] The effect of TAT-NEMO^ActPep on NF-κB DNA binding was also analyzed in MEF cells by EMSA.

[4] = system: non-canonical NF-κB signaling (IKK1, p100 processing); experiment: Western blot of p100 processing after LTβR engagement (non-canonical NF-κB signaling); type: cell-based; conditions: increasing peptide concentrations; HeLa cells per FIG. 5C legend
Experimental: as §2
Equivalent amounts of protein from cell extracts was separated by SDS-PAGE and transferred to polyvinylidene fluoride (PVDF) membranes (Millipore, Bedford, MA, USA). The membrane was blocked with 5% bovine serum albumin (BSA) for 1 hour at room temperature and then the membrane was incubated with the primary antibodies overnight at 4° C. […]

[5] = system: MAP kinases JNK, Erk2 and p38; experiment: Western blot of MAP kinase phosphorylation in TNF-α-treated HeLa cells; type: cell-based, human
Experimental: as §4
It was also tested if TAT-NEMO^ActPep has any effect on non-canonical NF-κB signaling. This alternative NF-κB signaling pathway is activated in response to stimulation of specific cytokine receptors and leads to activation of IKK1 and consequent processing of the p100 precursor to the mature NF-κB subunit p52 (30,31). […] To further investigate the possible involvement of TAT-NEMO^ActPep in other signaling pathways, the effect of the peptide on MAPK activation was tested by monitoring the phosphorylation status of JNK, Erk2, and p38 upon TNF-α treatment of HeLa cells. […]

[6] = system: canonical NF-κB signaling through IKK2 in HeLa cells; experiment: Western blot of canonical NF-κB signaling in TNF-α-treated HeLa cells; type: cell-based, human; conditions: increasing peptide concentrations
Experimental: as §1, §2, §4
The inhibitory effects of TAT-NEMO^ActPep were further verified on canonical NF-κB signaling in HeLa cells by assessing IKK2 activation loop phosphorylation, IκBα degradation, and NF-κB ReIA/p65 subunit subcellular localization. Consistent with the observations of decreased nuclear NF-κB DNA binding activity by EMSA, treatment with TAT-NEMO^ActPep blocked IKK2 phosphorylation, IκBα proteolysis, and nuclear translocation of ReIA (FIG. 5B).

[7] = biological target: T1, IKK2 (purified recombinant; construct not stated for the experiment of FIG. 2D) (human, UniProt O14920 1-756, limits assumed); experiment: GST pull-down with purified proteins in the presence of Ub4, western blot
T1 sequence (looked up): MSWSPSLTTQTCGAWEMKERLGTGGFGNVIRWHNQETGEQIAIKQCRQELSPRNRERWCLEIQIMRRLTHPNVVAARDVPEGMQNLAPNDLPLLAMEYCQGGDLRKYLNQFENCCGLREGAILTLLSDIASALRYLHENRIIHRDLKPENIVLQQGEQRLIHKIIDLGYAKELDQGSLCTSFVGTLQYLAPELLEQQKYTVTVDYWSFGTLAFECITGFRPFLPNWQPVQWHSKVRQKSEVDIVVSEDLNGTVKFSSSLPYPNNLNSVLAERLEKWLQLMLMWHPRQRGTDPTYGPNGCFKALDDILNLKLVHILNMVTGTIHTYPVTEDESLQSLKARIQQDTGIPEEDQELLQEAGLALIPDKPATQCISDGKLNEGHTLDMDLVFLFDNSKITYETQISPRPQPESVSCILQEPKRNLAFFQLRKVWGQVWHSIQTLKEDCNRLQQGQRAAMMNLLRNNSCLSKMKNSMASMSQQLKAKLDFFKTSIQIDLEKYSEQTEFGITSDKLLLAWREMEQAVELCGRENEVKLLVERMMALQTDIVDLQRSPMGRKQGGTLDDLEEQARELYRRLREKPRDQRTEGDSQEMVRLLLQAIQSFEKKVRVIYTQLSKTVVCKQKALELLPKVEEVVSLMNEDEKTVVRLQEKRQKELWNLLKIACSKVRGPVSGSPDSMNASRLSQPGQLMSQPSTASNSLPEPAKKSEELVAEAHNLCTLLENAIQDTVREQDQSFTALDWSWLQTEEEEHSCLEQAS

[8] = biological target: T2, full length human IKK2 (recombinant, N-terminal hexahistidine-TEV tag) (human, UniProt O14920 1-756); experiment: GST pull-down with purified proteins, western blot
T2 construct: mature; Produced in Sf9 insect cells with baculovirus; also called IKKβ; full length IKK2; not shown: TEV cleavage site and vector residues of pFastBacHTb
T2 sequence: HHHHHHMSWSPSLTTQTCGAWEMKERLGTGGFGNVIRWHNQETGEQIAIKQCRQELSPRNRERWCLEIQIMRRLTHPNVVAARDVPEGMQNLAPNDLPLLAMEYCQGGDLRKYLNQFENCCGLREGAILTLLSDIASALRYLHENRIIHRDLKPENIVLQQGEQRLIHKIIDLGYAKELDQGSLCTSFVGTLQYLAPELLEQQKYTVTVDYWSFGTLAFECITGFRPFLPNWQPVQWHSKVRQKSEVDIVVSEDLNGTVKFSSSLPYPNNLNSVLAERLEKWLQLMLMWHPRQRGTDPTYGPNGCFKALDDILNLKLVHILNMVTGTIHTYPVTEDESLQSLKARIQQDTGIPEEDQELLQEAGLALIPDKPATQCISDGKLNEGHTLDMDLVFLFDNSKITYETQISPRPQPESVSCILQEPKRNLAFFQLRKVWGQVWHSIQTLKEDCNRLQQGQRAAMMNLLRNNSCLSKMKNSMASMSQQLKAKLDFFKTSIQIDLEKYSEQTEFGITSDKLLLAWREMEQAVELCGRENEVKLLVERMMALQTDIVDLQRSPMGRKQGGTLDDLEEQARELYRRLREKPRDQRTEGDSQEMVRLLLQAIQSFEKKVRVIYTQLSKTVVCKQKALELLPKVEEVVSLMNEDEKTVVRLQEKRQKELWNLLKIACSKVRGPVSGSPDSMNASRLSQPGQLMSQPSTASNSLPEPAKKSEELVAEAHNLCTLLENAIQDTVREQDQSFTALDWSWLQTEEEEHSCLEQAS

Molecule: TAT-NEMO^ActPep 6G: control variant of TAT-NEMO^ActPep with NEMO residues 384-389 mutated to glycine (SEQ ID NO 3) (YGRKKRRQRRRGGLSSPLALPSGGGGGGEE) [reference compound]
NF-κB-dependent shift of radiolabeled probe (EMSA) [1]: reduction was not observed; also recorded: does not
NF-κB DNA binding [2]: did not show such effects
ReIA subunit nuclear localization (western blot) [3]: did not show such effects
degradation of IκBα (western blot) [3]: did not show such effects
phosphorylation of the IKK2 activation loop (western blot) [3]: did not show such effects
processing of p100 in response to LTβR engagement (western blot) [4]: not observed any effect; also recorded: no change in the extent of p100 processing
phosphorylation of JNK, Erk2 and p38 MAP kinases (western blot) [5]: Neither TAT-NEMO^ActPep nor TAT-NEMO^ActPep 6G influenced; also recorded: no effect
IKK2 activation loop phosphorylation (western blot) [6]: showed no such effects
IκBα degradation / proteolysis (western blot) [6]: showed no such effects
NF-κB ReIA/p65 subunit nuclear localization (western blot) [6]: showed no such effects

binding result [7]: no binding
B1: GST-NEMO^241-419 6G (other, human, UniProt Q9Y6K9 241-419, looked up)
chain: YDNHIKSSVVGSERKRGMQLEDLKQQLQQAEEALVAKQEVIDKLKEEAEQHKIVMETVPVLKAQADIYKADFQAERQAREKLAEKKELLQEQLEQLQREYSKLKASCQESARIEDMRKRHVEVSQAPLPPAPAYLSSPLALPSGGGGGGEEPPDFCCPKCQYQAPDMDTLQIHVMECIE
notes: not shown: glutathione-S-transferase (GST) tag of vector pGEX4T-2, N-terminal

binding result [7]: no binding
B2: GST-NEMO^241-419 3G (other, human, UniProt Q9Y6K9 241-419, looked up)
chain: B1 chain with G147S, G148P, G149P
notes: as for B1

binding result [8]: no binding
B3: GST-NEMO^111-419 (other, human, UniProt Q9Y6K9 111-419, looked up)
chain: KLDLKRQKEQALREVEHLKRCQQQMAEDKASVKAQVTSLLGELQESQSRLEAATKECQALEGRARAASEQARQLESEREALQQQHSVQVDQLRMQGQSVEAALRMERQAASEEKRKLAQLQVAYHQLFQEYDNHIKSSVVGSERKRGMQLEDLKQQLQQAEEALVAKQEVIDKLKEEAEQHKIVMETVPVLKAQADIYKADFQAERQAREKLAEKKELLQEQLEQLQREYSKLKASCQESARIEDMRKRHVEVSQAPLPPAPAYLSSPLALPSQRRSPPEEPPDFCCPKCQYQAPDMDTLQIHVMECIE
notes: as for B1
